Results taken from US20240251792A1, “WEED CONTROL METHOD” (SYNGENTA CROP PROTECTION AG, priority 2021, published 2024).
Like-named read-outs stand apart in the source and are kept apart here.

Key:
Type in all cases: in vivo
weeds and/or crops = assay: Post-emergence biological efficacy (Table 4); conditions: 312 h, 1000 g/ha, evaluated after 13 days
Outline: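 Scores are visual damage (0 = none, 100 = total), read 13 days after treatment at 24/18 °C with 15 h light. Plants had been sown in standard soil and grown 14 days before a spray of compound in F50/acetone, diluted with 0.2% Genapol X080.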

STEME = assay: Pre-emergence biological efficacy (Table 3); conditions: 312 h, after 13 days, read-out: evaluation (100=total damage to plant; 0=no damage to plant)
Outline: (§1)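 Seeds were sown in standard soil in pots, kept one day in a glasshouse (24/19 °C day/night, 16 h light), then sprayed with an aqueous dilution in 0.2% Genapol X080 of a 50 g/l stock in acetone/AMA emulsifier mix. Damage was scored visually after 13 days (0 = none, 100 = total).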

ECHCG = assay: Pre-emergence biological efficacy (Table 3); conditions: Echinochloa crus-galli, 312 h, 1000 g/ha, after 13 days, read-out: evaluation (100=total damage to plant; 0=no damage to plant)
Outline: as §1

ZEAMX = assay: Pre-emergence biological efficacy (Table 3); conditions: 312 h, 1000 g/ha, after 13 days, read-out: evaluation (100=total damage to plant; 0=no damage to plant)
Outline: as §1

AMARE = assay: Pre-emergence biological efficacy (Table 3); conditions: Amaranthus retroflexus, 312 h, 1000 g/ha, after 13 days, read-out: evaluation (100=total damage to plant; 0=no damage to plant)
Outline: as §1

IPOHE = assay: Pre-emergence biological efficacy (Table 3); conditions: Ipomoea hederacea, 312 h, 1000 g/ha, after 13 days, read-out: evaluation (100=total damage to plant; 0=no damage to plant)
Outline: as §1

ABUTH = assay: Pre-emergence biological efficacy (Table 3); conditions: Abutilon theophrasti, 312 h, after 13 days, read-out: evaluation (100=total damage to plant; 0=no damage to plant)
Outline: as §1

[1] = STEME, read-out: damage to plant STEME (100=total damage; 0=no damage)
[2] = ZEAMX, read-out: damage to plant ZEAMX (100=total damage; 0=no damage)
[3] = Abutilon theophrasti, ABUTH, read-out: damage to plant ABUTH (100=total damage; 0=no damage)
[4] = Amaranthus retroflexus, AMARE, read-out: damage to plant AMARE (100=total damage; 0=no damage)
[5] = Echinochloa crus-galli, ECHCG, read-out: damage to plant ECHCG (100=total damage; 0=no damage)
[6] = Ipomoea hederacea, IPOHE, read-out: damage to plant IPOHE (100=total damage; 0=no damage)

| Structure (SMILES) | pest or weed control at 1000 g/ha (weeds and/or crops; [1]) | pest or weed control at 1000 g/ha (weeds and/or crops; [2]) | pest or weed control at 1000 g/ha (weeds and/or crops; [3]) | pest or weed control at 1000 g/ha (weeds and/or crops; [4]) | pest or weed control at 1000 g/ha (weeds and/or crops; [5]) | pest or weed control at 1000 g/ha (weeds and/or crops; [6]) | pest or weed control at 1000 g/ha (STEME) | pest or weed control at 1000 g/ha (ECHCG) | plant injury at 1000 g/ha (ZEAMX) | pest or weed control at 1000 g/ha (AMARE) | pest or weed control at 1000 g/ha (IPOHE) | pest or weed control at 1000 g/ha (ABUTH) |
| --- | --- | --- | --- | --- | --- | --- | --- | --- | --- | --- | --- | --- |
| N#Cc1c(Cl)cccc1C(F)(F)C(=O)O [Compound 1-262, 2-(3-Chloro-2-cyano-phenyl)-2,2-difluoro-acetic acid] | 100% | 20% | 80% | 90% | 0% | 70% | 100% | 0% | 40% | 90% | 90% | 90% |
| COc1c(F)cccc1C(F)(F)C(=O)O [Compound 1-306, 2,2-Difluoro-2-(3-fluoro-2-methoxy-phenyl)acetic acid] | 0% | 10% | – | 70% | 0% | 60% | 10% | 10% | 0% | 30% | 60% | 20% |
| COc1c(F)ccc(F)c1C(F)(F)C(=O)O [Compound 1-314, 2-(3,6-Difluoro-2-methoxyphenyl)-2,2-difluoroacetic acid] | 0% | 10% | 0% | 60% | 0% | 10% | 0% | 0% | 0% | 0% | 0% | 0% |
| COc1c(Cl)cccc1C(F)(F)C(=O)O [Compound 1-317, 2-(3-chloro-2-methoxy-phenyl)-2,2-difluoro-acetic acid] | 100% | 60% | – | 100% | 60% | 90% | 100% | 90% | 70% | 90% | 90% | 100% |
| CSc1c(Cl)cccc1C(F)(F)C(=O)O [Compound 1-356, 2-(3-Chloro-2-(methylthio)phenyl)-2,2-difluoroacetic acid] | 70% | 10% | 60% | 40% | 0% | 70% | 30% | 0% | 10% | 50% | 50% | 30% |
| O=C(O)C(F)(F)c1cccc2c1OC(F)(F)O2 [Compound 1-385, 2-(2,2-Difluoro-1,3-benzodioxol-4-yl)-2,2-difluoro-acetic acid] | 100% | 40% | 90% | 90% | 50% | 70% | 50% | 50% | 50% | 60% | 70% | 90% |
| O=C(O)C(F)(F)c1c(Cl)ccc2c1OC(F)(F)O2 [Compound 1-389, 2-(5-Chloro-2,2-difluorobenzo[d][1,3]dioxol-4-yl)-2,2-difluoroaceticacid] | 50% | 0% | – | 80% | 10% | 70% | 60% | 10% | 10% | 60% | 60% | 50% |
| Cc1noc2cccc(C(F)(F)C(=O)O)c12 [Compound 1-391, 2,2-Difluoro-2-(3-methyl-1,2-benzoxazol-4-yl)acetic acid] | 50% | 10% | – | 70% | 30% | 80% | 20% | 40% | 10% | 70% | 60% | 40% |
| Cc1noc2ccc(Cl)c(C(F)(F)C(=O)O)c12 [Compound 1-395, 2-(5-Chloro-3-methyl-1,2-benzoxazol-4-yl)-2,2-difluoro-acetic acid] | 20% | 0% | 20% | 40% | 10% | 70% | 10% | 20% | 0% | 30% | 50% | 10% |
| Cc1ccc2onc(C)c2c1C(F)(F)C(=O)O [Compound 1-396, 2-(3,5-dimethylbenzo[d]isoxazol-4-yl)-2,2-difluoroacetic acid] | 0% | 10% | – | 10% | 0% | 60% | 0% | 0% | 30% | 0% | 0% | 0% |
| O=C(O)C(F)(F)c1c(Cl)ccc2ccccc12 [Compound 1-401, 2-(2-chloronaphthalen-1-yl)-2,2-difluoroacetic acid] | 80% | 10% | 80% | 70% | – | 80% | 80% | 30% | 0% | 80% | 50% | 60% |
| O=C(O)C(F)(F)c1c(F)ccc2cccnc12 [Compound 1-406, 2,2-Difluoro-2-(7-fluoro-8-quinolyl)acetic acid] | 70% | 40% | 70% | 80% | 20% | 80% | 50% | 0% | 10% | 80% | 60% | 60% |
| O=C(O)C(F)(F)c1c(Cl)ccc2cccnc12 [Compound 1-407, 2-(7-Chloroquinolin-8-yl)-2,2-difluoroacetic acid] | 30% | 0% | – | 70% | 0% | 80% | 10% | 50% | 40% | 60% | 60% | 70% |
| O=C(O)C(F)(F)c1cccc2nccnc12 [Compound 1-409, 2,2-Difluoro-2-(quinoxalin-5-yl)acetic acid] | 40% | 10% | – | 70% | 10% | 80% | 30% | 20% | 0% | 50% | 70% | 70% |
